This is an account of results in patent US9689042B2, “Use of glycolytic pathways for inhibiting or measuring oncogenic signaling” (The Regents of the University of California, priority 2012, dated 2017).

Experiment [1] has as its system T4-2 cells. The settings on record: T4-2 cells, 3D lrECM; for phenotypic reversion of the malignant phenotype: 2DG 4 mM, IA 20 μM, OX 50 mM, Azs 20 μM, DON 20 μM, BADGP 5 mM, TM 10 ng/ml, OGM 4 ng/ml, Rapa 0.01-1.0 μM. The procedure:
HMT-3522 cells were cultured on tissue culture plastic (2D) and in 3D lrECM gels with H14 medium, a 1:1 mix of DMEM/F12 (UCSF Cell Culture Facility) supplemented with 250 ng/ml insulin, 10 μg/ml transferrin, 2.6 ng/ml sodium selenite, 0.1 nM β-estradiol, 1.4 μM hydrocortisone and 5 μg/ml prolactin but no serum. S1 cells were additionally supplemented with 10 ng/ml EGF. MDA-MB-231 and HCC70 cells were cultured in DMEM and RPMI1640, respectively, and were supplemented with 10% fetal bovine serum (FBS).
For 3D lrECM cultures, S1 and T4-2 cells were seeded at 840,000 and 600,000 cells per cm3 respectively in lrECM gel (Cultrex), overlaid with H14 medium. MDA-MB-231 and HCC70 cells were seeded at 625,000 cell per cm3 and overlaid with H14 medium supplemented with 1% FBS. Cells were used for each assay after 10 days, unless otherwise indicated.
Pieces of lrECM gel containing cell colonies were suspended in approximately the same volume of phosphate buffered saline (PBS) and directly spread on glass slides. After brief air-drying, colonies were fixed with 3.7% paraformaldehyde (PFA) in PBS at room temperature (RT) for 10 min, washed with PBS containing 0.1 mM glycine, and permeabilized with 1:1 methanol/acetone at −20° C. for 10 min. After blocking with IF buffer (0.2% Triton X-100, 0.1% BSA [radioimmunoassay grade], 0.05% Tween 20, 7.7 mM NaN3 in PBS) containing 10% goat serum and 1% goat F(ab′)2 anti-mouse immunoglobulin G (IgG; Caltag) at RT for 30 min, colonies were stained with anti-α6 integrin antibody (Chemicon International) at 4° C. overnight. Colonies were washed extensively with IF buffer, and stained with Alexa 568-labeled anti-rat IgG antibody at RT for 2 hr. Colonies were washed with IF buffer again, and nuclei were stained with DAPI at RT for 10 min. Slides were briefly washed with PBS and mounted with 50% glycerol in PBS.
To test whether increased glucose metabolism itself is required for oncogenic signaling events, we utilized 3D lrECM cultures of HMT-3522, a breast cancer progression series which includes non-malignant (S1) and malignant (T4-2) human breast epithelial cells from the same individual (Briand et al., 1987; Petersen et al., 1992; Rizki et al., 2008). Using these cells, we have described the involvement and reciprocity of multiple signaling pathways including EGFR, β1 integrin, PI3K-Akt and MEK-ERK in oncogenic events (Beliveau et al., 2010; Bissell et al., 2005). […] We thus used this “phenotypic reversion” of the cancer cells as an assay to examine how the signaling integration plan of the breast acini could involve glucose metabolism.

Experiment [2] concerns EGFR, β1 integrin, Akt, MEK, GLUT3, glycolytic enzymes in T4-2 cells. The experiment is described as follows: Western blots of signaling intermediates, GLUT3 and metabolic enzymes in 3D lrECM cultures of T4-2 cells. In kind it is cell-based, human. The note with it: T4-2 cells, 3D lrECM. How it is done: (§1) Cell colonies were separated from lrECM gels by shaking in PBS containing 5 mM EDTA and the proteinase inhibitor cocktail set I (Calbiochem) on ice for 30 min. Cells were lysed in lysis buffer (1% NP-40, 1% deoxycholate, 2% SDS, 150 mM NaCl, 20 mM Tris-HCl [pH 7.4] plus 5 mM EDTA and protease inhibitor cocktail set I and phosphatase inhibitor cocktail set I [Calbiochem]) and sonicated three times for 30 sec each. Proteins were separated by SDS-PAGE, transferred to nitrocellulose membranes, and probed with antibodies against the following proteins: phosphorylated MEK, MEK, phosphorylated Akt, Akt, phosphorylated AMPK, AMPK, p70S6K, phosphorylated p70S6K, CHOP, EPAC1 (Cell Signaling), β1 integrin, EGFR, activated EGFR, HIF-1α, (Chemicon International), PFKP (Abgent), GAPDH, GLUT3 (GeneTex), LDHA, PDHE1α, DLAT, DLD, HIF-3α, Rap1, sAC, EPAC2, OGT, Lamin A/C (Santa Cruz Biotechnology), Aldolase (Polysciences), GFPT (ProteinTech Group), HIF-2α (Abcam), and HA-tag (Covance). After probing with HRP-conjugated secondary antibodies, blots were developed using SuperSignal West Femto chemiluminescence reagent (Pierce Biotechnology). Images were captured using Fluor Chem 8900 imager (Alpha Innotech).
(A western blot detects proteins with antibodies after separation by electrophoresis.)

The test system of experiment [3] is T4-2 cells. The experiment is described as follows: Glucose uptake assay (IRDye800CW-2DG) in 3D lrECM. In kind it is cell-based, human. The procedure: (§2) Cells suspended in 200 μl lrECM were seeded in 12 well glass-bottom plates (14 mm diameter; MatTek Corporation). Gels were overlaid with 500 μl H14 media and cultured for 10 days before each assay unless otherwise described.
For glucose uptake assay, cells were incubated with 1 μM of IRDye800CW-2DG (LI-COR Biosciences) for 1 hour, fixed within gels with 4% paraformaldehyde (PFA) in PBS for 30 min. and stained with DRAQ5 (1:10000 dilution), an infrared dye that binds stoichiometrically to DNA, for 30 min. Cells were extensively washed with PBS, then IRDye800-2DG uptake together with DRAQ5 staining were measured by using Odyssey Infrared Imaging System (LI-COR Biosciences).
(§3) In each assay, one well, containing only lrECM, was made for background measurements. Glucose uptake measured by 2DG uptake, lactate production and MitoTracker staining were normalized using total DNA levels, and presented relative to that of control (either S1 or non-treated T4-2 cells).

For experiment [4], the system named is T4-2 cells. The experiment can be described thus: Lactate production assay in 3D lrECM. Type of experiment: cell-based, human. How it is done:
as §2
For lactate production, on day 9, conditioned-media were harvested to measure lactate remaining in the 200 μl of the gel (assuming equilibrium between medium and gel, C0 nmol/μl). […] After 24 hours, total culture medium was harvested for measurement of final lactate concentrations (C nmol/μl) and total volumes (V μl) of the conditioned-media, and the cells in gel were fixed with PFA as above. Concentration of lactate in each sample was measured using a lactate assay kit (BioVision). Net lactate production within 24 hours (N) was calculated as follows: N=C×(V+200)−C0×200. Fixed cells were stained with DRAQ5, to measure total level of DNA as a surrogate for number of cells, and the staining was measured as above.
as §3

Experiment [5] concerns T4-2 cells. The experiment is described as follows: Mitochondrial activity (MitoTracker oxidation) assay in 3D lrECM. Type of experiment: cell-based, human. The procedure: as §2
For mitochondrial activity, we slightly modified the method described previously (Morici et al., 2007). Briefly, cells were incubated with 2 μM MitoTracker® Orange CM-H2 TMRos (Invitrogen) for 1 hour and fixed with PFA as above. Cells were counterstained with Hoechst 33342 (Invitrogen), which is known also to bind to DNA stoichiometrically, then MitoTracker and Hoechst staining were measured by taking z-section images from top to bottom of the gels using confocal microscopy.
as §3

The next experiment concerns HCC70 cells. The experiment can be described thus: 3D lrECM culture of HCC70 cells. In kind it is cell-based, human. The note with it: IA 2 μM, DON 20 μM.
Experiment [6] concerns MDA-MB-231 cells. The experiment is described as follows: 3D lrECM culture of MDA-MB-231 cells. Type of experiment: cell-based, human. The settings on record: IA 40 μM, DON 20 μM.
The test system of experiment [7] is MDA-MB-231 cells. The experiment can be described thus: In vitro invasive activity (Matrigel invasion chamber). The note with it: IA 40 μM, DON 20 μM, 17.5 mM glucose, 16 hours. In kind it is cell-based, human. The procedure: Invasive activity was examined using BD Biocoat GFR (growth factor reduced) Matrigel invasion chamber (BD Biosciences). Before the assay, lower surface of the membrane of the upper chamber was coated with collagen type I (10 μg/ml). MDA-MB-231 cells cultured on 2D plastic for two days with H14 medium containing different concentrations of glucose (17.5, 1.75 or 0 mM) or supplemented with metabolic inhibitors (40 μM IA or 20 μM DON, with 17.5 mM glucose) were detached by trypsinization, and 25,000 cells in each condition were seeded on the upper chambers. Both upper and lower chambers were filled with medium of the same formulations as that in each 2D culture. After 16 hours, cells were fixed with 4% PFA in PBS and stained with crystal violet.

For experiment [8], the system named is signaling intermediates in MDA-MB-231 cells. The experiment is described as follows: Western blots of signaling intermediates in MDA-MB-231 cells. Type of experiment: cell-based, human. The note with it: IA 40 μM, DON 20 μM. The procedure: as §1
The subject of the next experiment is Rap1. The experiment can be described thus: Measurement of Rap1 activity (GST-RalGDS-RBD pull-down) in T4-2 cells. In kind it is cell-based, human. The settings on record: T4-2 cells, 3D lrECM, IA 20 μM. How it is done:
Rap1 activity was measured as described previously (Itoh et al., 2007). Briefly, cell colonies were extracted from lrECM as described above, and lysed in lysis buffer (50 mM Tris-HCl [pH 7.4], 500 mM NaCl, 1% NP40, 2.5 mM MgCl2, 10% glycerol, 10 μg/ml aprotinin and 10 μg/ml leupeptin) at 4° C. for 30 min. Lysates were cleared by centrifugation at 15,000×g at 4° C. for 15 min. Supernatants (containing 300 μg protein in 300 μl) were incubated with 15 μg of GST-tagged RalGDS-RBD fusion protein immobilized on Glutathione Sepharose 4B beads (GE Healthcare), at 4° C. for 1 hr. Beads were washed trice in lysis buffer and resuspended in Laemmli buffer. Samples were separated by SDS-PAGE, followed by transfer to polyvinylidene fluoride membranes (0.2 μm pore) and immunoblotting using anti-Rap1 antibody.

Where [9] appears, read: same inhibitor concentrations as E1.

Entries after “also recorded” stand apart in the source; their conditions may differ.

As for `[N-]=[N+]=CC(=O)CC[C@H](N)C(=O)O` [DON, 6-diazo-5-oxonorleucine], the “phenotypic reversion of the malignant phenotype” value in the experiment with T4-2 cells [1] is “do induce phenotypic reversion; also recorded: induced the repertoire of the reversion phenotype”. For the same molecule, in the experiment on T4-2 cells [1] (setting [9]), the “basal polarity / organized acinar structures” value is “re-establishment of tissue polarity” and the “growth / proliferation (cell numbers at the colony mid-section, EdU incorporation)” value is on record as “growth arrest”. For the same molecule, the “levels and/or activities of EGFR, β1 integrin, Akt and MEK (oncogenic signaling)” value in [2] (Western blot) is “suppression of activation of oncogenic signaling”. Besides, the “EGFR expression and activity” value in experiment [2] (Azs 20 μM, DON 20 μM) is reported as “significantly down-regulated”. For the same molecule, the glucose uptake entry with T4-2 cells [3] was “significantly down-regulated”. Further, the lactate production entry in the experiment with T4-2 cells [4] is listed as “significantly down-regulated”. In addition, the “mitochondrial activity (oxidation)” value in the experiment on T4-2 cells [5] was “remained unaltered”. Also, the reversion phenotype entry in the experiment with HCC70 cells is given as “reversion phenotype was similar to that in T4-2 cells”. Further, in the experiment on MDA-MB-231 cells [6], the altered phenotype result is reported as “incomplete but still significant” and the “proliferation (total cell numbers)” value is given as “appreciable decrease”. For the same molecule, in the experiment with MDA-MB-231 cells [7], the invasive property result is on record as “appreciable decrease”. Also, the other signaling activities entry in [8] is “appreciable decrease”.

Take `O=C(O)CI` [IA, Iodoacetate]: in the experiment with T4-2 cells [1], the “phenotypic reversion of the malignant phenotype” value is “do induce phenotypic reversion”. Further, the “EGFR and MEK” value in [2] (basal medium 17.5 mM glucose, IA 20 μM, OX 50 mM) was “not affected appreciably”. For the same molecule, the Rap1 activity entry with Rap1 is listed as “down-regulation of Rap1 activity without a change in its total protein level”. Besides, in the experiment on HCC70 cells, the reversion phenotype entry is recorded as “reversion phenotype was similar to that in T4-2 cells”. In addition, in the experiment with MDA-MB-231 cells [6], the altered phenotype result was “incomplete but still significant” and the “proliferation (total cell numbers)” value was “appreciable decrease”. Besides, the invasive property result in the experiment with MDA-MB-231 cells [7] was “appreciable decrease”. Also, the other signaling activities entry in experiment [8] is given as “appreciable decrease”.
